{
  "source": "patent US20230210891A1",
  "about": "“POLYSACCHARIDE COMPOSITIONS AND THERAPEUTIC GELS” (The University of Birmingham, priority 2020, published 2023)",
  "key": {"[1]": {"tested_on": "rat experimental model of glaucoma", "assay": "Study 2: intraocular pressure in rat experimental model of glaucoma (IC TGFβ1)", "type": "in vivo", "settings": "10 µl eye drop twice a day, day 14 to 28", "experimental": "A rat experimental model of glaucoma was used. All rats received twice weekly intracameral (IC) injections of 3.5 µl 5 µg/ml TGFβ1 from the start of the experiment (day 0) until the end (day 28). This establishes the experimental glaucoma model.\nIntraocular pressure (IOP) measures were taken twice weekly using a rebound tonometer, between the hours of 9-11am (to reduce circadian fluctuations in IOP) and before TGFβ injections were administered.\nOn day 14 rats then also received a single 10 µl eye drop (ED) of either a composition of the invention or a composition representing the standard of care. The eyedrops were administered by pipette, twice a day, every day between day 14 and day 28. Gellan fluid gels were prepared as describe above, and the various sulphated polysaccharides investigated (dextran sulphate, fucoidan, or heparan sulphate) were mixed into the fluid gel at a concentration of 1 mg/ml prior to administration as a single formulation eye drop.\nThe most common eye drop prescribed clinically for the treatment of glaucoma is latanoprost 50 µg/ml (Xalatan®). Therefore, this treatment was used in this study for the standard of care (SOC).\nThe groups investigated in the study were as follows: […]"}, "[2]": {"biological_target": "T1, Collagen - Rat tail (Rattus norvegicus, UniProt P02454+P02466)", "T1 construct": "purchased Corning; host or cells: rat tail", "T1 sequence (P02454 152-1207 limits assumed)": "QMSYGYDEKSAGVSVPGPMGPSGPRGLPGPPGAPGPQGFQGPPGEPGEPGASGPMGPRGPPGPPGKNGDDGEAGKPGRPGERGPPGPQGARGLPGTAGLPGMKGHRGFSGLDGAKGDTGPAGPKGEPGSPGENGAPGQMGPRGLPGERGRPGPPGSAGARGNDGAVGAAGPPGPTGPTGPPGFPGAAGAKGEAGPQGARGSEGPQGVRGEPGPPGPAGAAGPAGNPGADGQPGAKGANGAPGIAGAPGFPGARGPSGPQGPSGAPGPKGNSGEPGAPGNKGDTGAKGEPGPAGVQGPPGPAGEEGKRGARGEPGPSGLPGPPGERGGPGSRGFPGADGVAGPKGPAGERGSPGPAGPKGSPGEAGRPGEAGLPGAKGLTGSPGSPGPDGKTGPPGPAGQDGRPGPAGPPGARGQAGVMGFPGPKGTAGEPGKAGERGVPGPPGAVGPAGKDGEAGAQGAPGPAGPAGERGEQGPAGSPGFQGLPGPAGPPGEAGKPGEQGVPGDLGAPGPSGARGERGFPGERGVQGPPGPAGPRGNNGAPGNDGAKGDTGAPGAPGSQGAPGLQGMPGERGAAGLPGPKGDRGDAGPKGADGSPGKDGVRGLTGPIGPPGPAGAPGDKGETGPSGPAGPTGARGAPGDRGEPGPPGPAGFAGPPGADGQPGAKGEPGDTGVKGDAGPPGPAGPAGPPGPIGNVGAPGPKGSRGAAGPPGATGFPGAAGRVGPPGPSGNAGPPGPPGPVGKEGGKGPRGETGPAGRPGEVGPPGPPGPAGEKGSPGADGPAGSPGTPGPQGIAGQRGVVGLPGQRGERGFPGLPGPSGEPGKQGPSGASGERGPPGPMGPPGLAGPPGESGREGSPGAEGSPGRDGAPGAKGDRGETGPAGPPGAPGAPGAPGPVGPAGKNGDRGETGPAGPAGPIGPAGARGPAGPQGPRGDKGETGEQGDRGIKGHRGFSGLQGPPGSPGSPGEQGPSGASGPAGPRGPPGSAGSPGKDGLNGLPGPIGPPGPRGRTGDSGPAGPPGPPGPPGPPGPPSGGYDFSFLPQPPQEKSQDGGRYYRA", "T1 sequence (P02466 86-1125 limits assumed)": "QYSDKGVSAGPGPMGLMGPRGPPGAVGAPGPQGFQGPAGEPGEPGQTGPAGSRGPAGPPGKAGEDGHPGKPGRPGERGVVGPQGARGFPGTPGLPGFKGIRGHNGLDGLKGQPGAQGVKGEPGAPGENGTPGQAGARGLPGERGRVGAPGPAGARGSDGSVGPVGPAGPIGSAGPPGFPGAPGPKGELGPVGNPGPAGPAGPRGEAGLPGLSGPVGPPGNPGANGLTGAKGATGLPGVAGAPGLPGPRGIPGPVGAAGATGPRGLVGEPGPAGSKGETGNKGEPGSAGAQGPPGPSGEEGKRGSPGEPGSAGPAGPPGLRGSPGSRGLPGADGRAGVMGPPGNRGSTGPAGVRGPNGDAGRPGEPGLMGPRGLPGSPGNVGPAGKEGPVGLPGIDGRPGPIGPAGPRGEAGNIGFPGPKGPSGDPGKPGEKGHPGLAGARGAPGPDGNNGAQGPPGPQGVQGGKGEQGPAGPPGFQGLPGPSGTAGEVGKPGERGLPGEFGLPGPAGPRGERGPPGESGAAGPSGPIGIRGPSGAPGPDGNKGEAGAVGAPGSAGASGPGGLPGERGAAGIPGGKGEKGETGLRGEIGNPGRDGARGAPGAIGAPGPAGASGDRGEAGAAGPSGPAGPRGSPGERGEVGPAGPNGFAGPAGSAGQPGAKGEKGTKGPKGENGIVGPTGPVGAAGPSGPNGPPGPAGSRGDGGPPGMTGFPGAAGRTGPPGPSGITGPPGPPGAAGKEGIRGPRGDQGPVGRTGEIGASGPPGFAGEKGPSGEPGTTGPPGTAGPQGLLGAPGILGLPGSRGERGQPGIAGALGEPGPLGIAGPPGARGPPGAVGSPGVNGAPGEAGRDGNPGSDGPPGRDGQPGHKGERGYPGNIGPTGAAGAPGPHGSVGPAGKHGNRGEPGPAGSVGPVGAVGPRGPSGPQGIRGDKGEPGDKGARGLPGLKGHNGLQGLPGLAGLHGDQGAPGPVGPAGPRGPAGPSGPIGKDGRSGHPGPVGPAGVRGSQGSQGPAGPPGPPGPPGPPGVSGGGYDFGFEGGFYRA", "assay": "Collagen fibrillogenesis assay (turbidity, 405 nm plate reader)", "type": "biochemical", "settings": "for inhibition of collagen fibrillogenesis / collagen fibril formation: increasing doses of polymer", "experimental": "Collagen fibrillogenesis was undertaken using collagen acquired from Corning to assess the ability of carrageenans with different degrees of sulphation, gellan gum (LA) and heparan sulphate on their ability to alter fibrillogenesis.\n• PBS - Dulbecco’s PBS pH 7.4 • Carrageenans (iota and kappa) (Sigma) • (CGLA) (Kelcogel; Lot #: 5C1623A) • Heparan sulphate (Tinzaparin - mw ~ 9000) • Collagen - Rat tail - Corning 4.04 mg/ml • Deionised water\n1. Preparation of stock solutions: • a. A 0.2% (w/v) solution of both carrageenans, gellan and heparan in water were prepared. (0.1 g polymer in 50 ml water) • b. Mixtures were stirred until fully dispersed/hydrated. (prevent water loss by covering the beaker)\n2. Preparation of Buffers: • a. PBS diluent buffer; • i. To 200 ml deionised water add sodium phosphate (0.35 g) (0.348 g)and sodium chloride (2.05 g) (2.061 g) • ii. Adjust pH to 7.40 and adjust final volume to 250 ml. • iii. Store at room temperature. • b. PBS reaction buffer; • i. To 200 ml deionised water add sodium phosphate (2.07 g) (2.081 g) and sodium chloride (4.09 g) (4.091 g) • ii. Adjust pH to 7.40. • iii. Add deionised water to create a final volume of 250 ml. • iv. Store at room temp.\n3. Collagen fibrillogenesis assay: • a. Pipette […] of buffer (PBS) into rows A and B for blanks. • b. Standard curve generated in a dilution plate. Add 150 ml of each preparation into C1, D1 and E1. • c. Add 150 mL of sample to rows F1, G1 and H1. • d. Add […] of buffer (PBS) to the additional columns 2 to 12. • e. Using a multi-channel pipette, preform a 2-fold dilution by transferring […] from column 1 to column 2. Continue serial diluting through to column 12. Discard the extra […] from column 12. • f. Calculate volume of collagen needed to make 10 ml (enough for 1 plate) at a concentration of […] in chilled water and gently mix.\nTarget conc. (0.8 mg/ml)Collagen stock conc. in mg/ml × 10=ml of collagen required\n10 ml- ?ml of collagen required= ??ml of water required • a. Add […] of collagen to each row (B to H). • b. Add 150 ml of phosphate buffer to all of the wells. • c. Incubate for 2-4 hrs at room temperature and analysed using 405 nm plate reader. (correct for the plate by using 570 nm reference)\nEach sample was replicated 3 times, two polymers in each plate (2 plates total). Collagen standard and pbs only were obtained on each plate."}},
  "note": "“Also recorded” adds a separate entry of the source.",
  "data": [
    {"compound": "CC(C)OC(=O)CCC/C=C\\C[C@@H]1[C@@H](CC[C@@H](O)CCc2ccccc2)[C@H](O)C[C@@H]1O", "note": "[SOC, latanoprost]", "values": [
      {"measurement": "IOP compared to glaucomatous eyes without any treatment", "setting": "[1]", "result": "significantly reduced IOP"}
    ]},
    {"compound": "carrageenan", "values": [
      {"measurement": "inhibition of collagen fibrillogenesis / collagen fibril formation", "setting": "[2]", "result": "inhibit collagen fibrillogenesis (indicative of an anti-fibrotic activity) in a dose-dependent manner"}
    ]},
    {"compound": "dextran sulphate", "values": [
      {"measurement": "inhibition of collagen fibrillogenesis / collagen fibril formation", "setting": "[2]", "result": "dose-dependent ability to inhibit collagen fibrillogenesis"}
    ]},
    {"compound": "gellan", "values": [
      {"measurement": "dose required to achieve a 50% reduction in turbidity (rank order; higher degree of sulphonation requires lower dose)", "setting": "[2]", "result": "lota > lambda > gellan"}
    ]},
    {"compound": "heparan sulphate", "values": [
      {"measurement": "inhibition of collagen fibrillogenesis / collagen fibril formation", "setting": "[2]", "result": "inhibit collagen fibrillogenesis (indicative of an anti-fibrotic activity) in a dose-dependent manner; also recorded: inhibit collagen fibril formation"}
    ]},
    {"compound": "iota carrageenan", "values": [
      {"measurement": "dose required to achieve a 50% reduction in turbidity (rank order; higher degree of sulphonation requires lower dose)", "setting": "[2]", "result": "lota > lambda > gellan"},
      {"measurement": "inhibition of collagen fibrillogenesis / collagen fibril formation", "setting": "[2]", "result": "inhibit collagen fibril formation"}
    ]},
    {"compound": "kappa carrageenan", "values": [
      {"measurement": "inhibition of collagen fibrillogenesis / collagen fibril formation", "setting": "[2]", "result": "inhibit collagen fibril formation"}
    ]}
  ]
}
